Measurements as given in patent publication US20230303972A1, “IN VITRO GENETIC DISEASE MODEL CELL AND METHOD FOR PRODUCING THE SAME” (Ricoh Company, Ltd., priority 2022, published 2023).

B1: BDNF: BDNF, which is known for the therapeutic effect for Rett syndrome, added to culture medium (protein, UniProt P23560 19-247, looked up)
Neurotrophic factor BDNF …: APMKEANIRGQGGLAYPGVRTHGTLESVNGPKAGSRGLTSLADTFEHVIEELLDEDQKVRPNEENNKDADLYTSRVMLSSQVPLEPPLLFLLEEYKNYLDAANMSMRVRRHSDPARRGELSVCDSISEWVTAADKKTAVDMSGGTVTVLEKVPVSKGQLKQYFYETKCNPMGYTKEGCRGIDKRHWNSQCRTTQSYVRALTMDSKKRIGWRFIRIDTSCVCTLTIKRGR

How the values were obtained:
[1] = test system: iPS cell-derived differentiated neurocyte alone; assay: Neurite morphology of iPS cell-derived neurocytes infected with hMECP2-shRNA lentivirus, single culture; format: cell-based, human; details: FIG. 3
Description: (§1) Commercially available iPS-cell-derived neurocytes (#EX-SeV-CW50065, Elixirgen Scientific, Inc.) and commercially available human primary astrocytes (#N7805-100, Thermo Fisher Scientific Inc.) were thawed and used to prepare cell suspensions with culture media at 1×10^4 cells/well and 2.5×10^3 cells/well respectively. After the Laminine solution was removed, the suspension was seeded at 50 μL/well, and cocultured. For single culture, 1×10^4 cells/well neurocytes were seeded at 50 μL/well. The culture continued under 5% CO2 at 37° C. in the incubator for 6 weeks. Half the amount of the culture medium was replaced once in 3 to 4 days. The culture medium used was a culture medium specified by Elixirgen Scientific, Inc. for the period of 1 week after the seeding. Then, the culture medium used was Neurobasal Plus supplemented with 2% B-27 Plus, 1% GlutaMAX, 200 μM ascorbic acid, 10% Neurocyte culture medium, and 1% penicillin-streptomycin.
(§2) At 4 days after the cell seeding, virus solutions for expression of the respective shRNAs were added under MOI 0.1 and MOI 1, and allowed to cause infection. MOI was prepared in accordance with only the number of neurocytes. At 7 hours after the infection, the whole amount of culture medium was replaced. To the culture medium in the wells to be rescued, BDNF, which is known for the therapeutic effect for Rett syndrome, was added at 50 ng/mL. […]

hMECP2 = assay: Ratio of neurocytes with MECP2 knocked down versus amount of lentivirus infection (mCherry fluorescence); format: cell-based, human; details: coculture
Text: As a lentivirus vector for transfection, an hMECP2-shRNA lentivirus vector plasmid was used. This plasmid vector contains, downstream of a U6 promoter, a base sequence of SEQ ID NO: 3 ([…]) encoding an shRNA complementary to the 3′ UTR of the hMECP2 gene. Additionally, as a control lentivirus vector, an NC-shRNA lentivirus vector plasmid was used. This plasmid vector contains, downstream of a U6 promoter, a non-mammalian shRNA having a base sequence of SEQ ID NO: 4 ([…]).
At 4 days after the cell seeding, virus solutions for expression of the respective shRNAs were added under MOI 0.1 and MOI 1, and allowed to cause infection. MOI was prepared in accordance with only the number of neurocytes. At 7 hours after the infection, the whole amount of culture medium was replaced. To the culture medium in the wells to be rescued, BDNF, which is known for the therapeutic effect for Rett syndrome, was added at 50 ng/mL.

[2] = test system: iPS cell-derived differentiated neurocyte cocultured with human primary astrocyte; assay: Neurite morphology of iPS cell-derived neurocytes with hMECP2 knockdown, coculture with human primary astrocytes (phase-contrast observation, BDNF rescue); format: cell-based; details: observed Day 11 to Day 42
Description: as §1, §2

| Molecule | Knockdown effect on hMECP2 evaluated by number of neurites and length of the neurite [1] | Ratio of neurocytes with MECP2 knocked down (hMECP2; infection with a large amount of lentivirus, FIG. 5) | Ratio of neurocytes with MECP2 knocked down (hMECP2; infection with a small amount of lentivirus, FIG. 4) | Knockdown effect on hMECP2 evaluated by number of neurites and length of the neurite ([2]; coculture of neurocyte and human primary astrocyte, FIG. 1 a to f) | Rescue of the hMECP2 knockdown effect (decrease in number and length of neurites) ([2]; BDNF 50 ng/mL in culture medium, hMECP2-shRNA lentivirus-infected neurocytes cocultured with astrocytes, FIG. 1 g to l) |
| --- | --- | --- | --- | --- | --- |
| hMECP2-shRNA: shRNA complementary to the 3′ UTR of the hMECP2 gene, encoded by SEQ ID NO: 3, expressed from a lentivirus vector (DNA GGGTAGGGCTCTGACAAAGCTTCCCGATTAACTGAAATAAA) | neither a decrease in the number of neurites nor a change in the length of the neurite | in substantially all the neurocytes | in a part of the neurocytes | chronological decrease in the number of neurites and decrease in the length of the neurite |  |
| B1 |  |  |  |  | improved |
